Reference: patent US11267802B2 (BEBETTER MED INC., priority 2015, dated 2022)

Assays:
[1] = biological target: T1, EGFR T790M/L858R (Homo sapiens, UniProt P00533, L858R/T790M); assay: Mutant EGFR T790M/L858R activity inhibition assay (Caliper mobility shift); format: biochemical; settings: read-out: enzyme activity inhibition (IC50) EGFR T790M/L858R
T1 construct: purchased Invitrogen PR8911A
Procedure: The assay procedure is as follows. […] 5 μl of the compound dissolved in 10% DMSO at a concentration of 5-fold of the final reaction concentration was added to a 384 well plate. 5 μl of 10% DMSO was used in a no-compound control well, while 5 μl of a kinase buffer was used in a no-enzyme activity control well. […] The conversion rate was read on Caliper EZ Reader II (Caliper Life Sciences). The conversion rate was then converted to inhibitory rate.
As used herein, “max” refers to the conversion rate of the DMSO no-compound control well, and “min” refers to the conversion rate of the no-enzyme activity control well. A curve was obtained by plotting the inhibitory rate as a function of the compound concentration. The XLFit excel add-in version 4.3.1 software was used to fit the curve and calculate the IC50. Inhibitory rate %=(max−conversion rate)/(max−min)×100.

[2] = test system: H358; assay: Inhibition assay on tumor cell proliferation (CellTiter-Glo), H358; format: cell-based, Human; settings: Homo sapiens, NCI-H358; H358 (wild-type EGFR), 72 hours, 10% bovine serum
Procedure: By using a CellTiter-Glo luminescence cell viability test kit (Promega, # G7572), the content of adenosine triphosphate (ATP) was determined to assess the cell viability.
Human colon cancer cell line LOVO and human non-small-cell lung cancer H358 express wild-type EGFR. Human non-small-cell lung cancer cell line HCC827 carries deletion mutation in exon 19 (ex19del). Those cell lines are purchased from Shanghai Fudan IBS Cell Resource Center and American Tissue Culture Collection (ATCC).
The assay procedure is as follows. The cells in a cell culture plate were digested with a pancreatic enzyme, re-suspended in a DPBS culture medium, and had the cell density counted by Scepter automated cytometer (Millipore # PHCC00000). The cells were diluted to a solution of 44,000 cells per ml. The cell solution with adjusted density was added to the cell assay plate at 90 microliters per well. The plate was placed in an incubator with 5% CO2 at 37° C. for 24 hours of incubation, and then added with different concentrations of subject compounds. The cells were incubated for 72 hours with the compounds in presence of 10% bovine serum. The content of ATP was determined by a CellTiter-Glo® Luminescent Cell Viability Assay kit (see the manufacturer's instruction for details) to evaluate cell-growth inhibition.
Briefly, 30 μl of CellTiter-Glo® reagent was added to each well, and then shaken for 10 minutes to induce cell lysis. The fluorescent signal was detected and recorded by Fluoroskan Ascent FL (Thermo). The max signal value was obtained from the cells treated by dimethyl sulfoxide for 72 hours. The min signal value was obtained from the medium alone (the number of the cells was 0). Inhibitory rate %=(max signal value−compound signal value)/(max signal value−min signal value)×100. The data was processed by GraphPad Prism V5.0 software (GraphPad Software, San Diego, Calif.). Sigmoidal dose-response curve fitting was performed to calculate the IC50 value.

[3] = test system: H1975; assay: Inhibition assay on tumor cell proliferation (CellTiter-Glo), H1975; format: cell-based, Human; settings: Homo sapiens, NCI-H1975; H1975 (L858R and T790M EGFR double mutation), 72 hours, 10% bovine serum

T1 sequence (P00533 25-1210 T790M/L858R): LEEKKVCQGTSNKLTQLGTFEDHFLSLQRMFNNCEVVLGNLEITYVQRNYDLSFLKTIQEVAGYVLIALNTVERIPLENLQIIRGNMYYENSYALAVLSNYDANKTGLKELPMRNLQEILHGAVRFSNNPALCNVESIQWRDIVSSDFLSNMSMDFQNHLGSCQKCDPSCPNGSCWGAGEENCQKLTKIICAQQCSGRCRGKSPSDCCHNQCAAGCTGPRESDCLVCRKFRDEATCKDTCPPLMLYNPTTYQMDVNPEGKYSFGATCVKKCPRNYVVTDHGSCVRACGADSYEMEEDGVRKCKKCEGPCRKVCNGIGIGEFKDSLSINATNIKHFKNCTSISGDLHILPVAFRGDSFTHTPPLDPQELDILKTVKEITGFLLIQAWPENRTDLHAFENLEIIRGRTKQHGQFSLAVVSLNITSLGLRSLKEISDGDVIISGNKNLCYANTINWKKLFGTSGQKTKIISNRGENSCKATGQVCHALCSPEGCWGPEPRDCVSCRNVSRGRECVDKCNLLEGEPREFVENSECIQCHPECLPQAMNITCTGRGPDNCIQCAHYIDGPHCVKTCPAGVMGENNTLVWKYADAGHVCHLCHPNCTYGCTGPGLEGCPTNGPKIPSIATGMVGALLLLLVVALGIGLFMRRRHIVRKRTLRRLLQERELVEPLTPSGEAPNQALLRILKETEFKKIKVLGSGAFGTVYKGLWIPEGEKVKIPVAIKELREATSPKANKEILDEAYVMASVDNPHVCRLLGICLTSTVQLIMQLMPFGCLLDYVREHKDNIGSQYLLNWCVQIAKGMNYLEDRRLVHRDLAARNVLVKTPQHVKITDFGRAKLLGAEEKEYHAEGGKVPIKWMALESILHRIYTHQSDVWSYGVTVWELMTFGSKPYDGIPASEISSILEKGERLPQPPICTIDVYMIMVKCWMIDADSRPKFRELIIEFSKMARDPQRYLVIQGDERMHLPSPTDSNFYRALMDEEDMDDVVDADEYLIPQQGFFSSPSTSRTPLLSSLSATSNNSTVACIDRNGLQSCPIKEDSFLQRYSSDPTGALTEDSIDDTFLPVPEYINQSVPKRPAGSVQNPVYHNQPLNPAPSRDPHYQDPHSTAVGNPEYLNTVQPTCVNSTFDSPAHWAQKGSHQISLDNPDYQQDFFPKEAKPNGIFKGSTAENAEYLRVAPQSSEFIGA

Row | Compound | IC50 [1] [nM] | melting point [°C] | IC50 [2] [nM] | IC50 [3] [nM]
1 | C=CC(=O)Nc1cc(Nc2ncc(NC)c(-n3ccc4ccccc43)n2)c(OC)cc1N(C)CCN(C)C [Compound 11, N-(5-(4-(1H-indol-1-yl)-5-(methylamino)pyrimidin-2-ylamino)-2-((2-(dimethylamino)ethyl)(methyl)amino)-4-methoxyphenyl)acrylamide] | 1 to 10 | 154 to 156 |  | 
2 | C=CC(=O)Nc1cc(Nc2nccc(-n3ccc4cc(Cl)ccc43)n2)c(OC)cc1N(C)CCN(C)C [Compound 31, N-(5-((4-(5-chloro-1H-indol-1-yl)pyrimidin-2-yl)amino)-2-((2-(dimethylamino)ethyl)(methyl)amino)-4-methoxyphenyl)acrylamide] | < 1 | 150 to 153 | > 1000 | < 10
3 | C=CC(=O)Nc1cc(Nc2nccc(-n3c(=O)n(CC4CC4)c4ccccc43)n2)c(OC)cc1N(C)CCN(C)C [Compound 63, N-(5-((4-(3-(cyclopropylmethyl)-2-oxo-2,3-dihydro-1H-benzo[d]imidazol-1-yl)pyrimidin-2-yl)amino)-2-((2-(dimethylamino)ethyl)(methyl)amino)-4-methoxyphenyl)acrylamide] | < 1 | 68 to 72 | > 1000 | < 10
4 | C/C=C/C(=O)Nc1cc(Nc2nccc(-n3ccc4ccccc43)n2)c(OC)cc1N(C)CCN(C)C [Compound 66, (E)-N-(5-((4-(1H-indol-1-yl)pyrimidin-2-yl)amino)-2-((2-(dimethylamino)ethyl)(methyl)amino)-4-methoxyphenyl)but-2-enamide] | 10 to 50 | 150.2 to 152.8 |  | 
5 | CC/C=C/C(=O)Nc1cc(Nc2nccc(-n3ccc4ccccc43)n2)c(OC)cc1N(C)CCN(C)C [Compound 67, (E)-N-(5-((4-(1H-indol-1-yl)pyrimidin-2-yl)amino)-2-((2-(dimethylamino)ethyl)(methyl)amino)-4-methoxyphenyl)pent-2-enamide] | 50 to 100 | 124.3 to 126.2 |  | 
6 | C=C(C)C(=O)Nc1cc(Nc2nccc(-n3ccc4ccccc43)n2)c(OC)cc1N(C)CCN(C)C [Compound 68, N-(5-((4-(1H-indol-1-yl)pyrimidin-2-yl)amino)-2-((2-(dimethylamino)ethyl)(methyl)amino)-4-methoxyphenyl)methacryl amide] | 10 to 50 | 145.7 to 147.1 |  | 
7 | COC/C=C/C(=O)Nc1cc(Nc2nccc(-n3ccc4ccccc43)n2)c(OC)cc1N(C)CCN(C)C [Compound 71] | 1 to 10 |  |  | 
8 | CCC#CC(=O)Nc1cc(Nc2nccc(-n3ccc4ccccc43)n2)c(OC)cc1N(C)CCN(C)C [Compound 74, N-(5-((4-(1H-indol-1-yl)pyrimidin-2-yl)amino)-2-((2-(dimethylamino)ethyl)(methyl)amino)-4-methoxyphenyl)pent-2-ynamide] | 1 to 10 | 149.4 to 151.7 |  | 
9 | C=CC(=O)Nc1cc(Nc2nccc(-n3ccc4ccccc43)n2)c(OC)cc1N(C)CCN1CCCCC1 [Compound 81, N-(5-(4-(1H-indol-1-yl)pyrimidin-2-ylamino)-4-methoxy-2-(methyl(2-(piperidin-1-yl)ethyl)amino)phenyl)acrylamide] | 1 to 10 | 131 to 136 |  | 
10 | C=CC(=O)Nc1cc(Nc2nccc(-n3ccc4ccccc43)n2)c(OC)cc1N(C)CCN1CCOCC1 [Compound 82, N-{5-(4-indol-1-yl-pyrimidin-2-ylamino)-4-methoxy-2-[methyl-(2-morpholin-4-yl-ethyl)-amino]-phenyl}-acryl amide] | 1 to 10 |  | > 1000 | 50 to 100
11 | C=CC(=O)Nc1cc(Nc2nccc(-n3ccc4ccccc43)n2)c(OC)cc1N1CCN(C)CC1 [Compound 84, N-(5-((4-(1H-indol-1-yl)pyrimidin-2-yl)amino)-4-methoxy-2-(4-methylpiperazin-1-yl)phenyl)acrylamide] | 10 to 50 | 204 to 205 |  | 
12 | C=CC(=O)Nc1cc(Nc2nccc(-n3c(=O)n(C4CC4)c4cc(F)ccc43)n2)c(OC)cc1N(C)CCN(C)C [Compound 98, N-(5-(4-(3-cyclopropyl-5-fluoro-2-oxo-2,3-dihydrobenzo[d]imidazol-1-yl)pyrimidin-2-ylamino)-2-((2-(dimethylamino)ethyl)(methyl)amino)-4-methoxyphenyl)acrylamide] | < 1 | 181 to 184 | 100 to 1000 | < 10
13 | C=CC(=O)Nc1cc(Nc2nccc(-n3c(=O)n(C4CC4)c4cc(Cl)ccc43)n2)c(OC)cc1N(C)CCN(C)C [Compound 99, N-(5-((4-(5-chloro-3-cyclopropyl-2-oxo-2,3-dihydro-1H-benzo[d]imidazol-1-yl)pyrimidin-2-yl)amino)-2-((2-(dimethylamino)ethyl)(methyl)amino)-4-methoxyphenyl)acrylamide] | 1 to 10 | 124 to 126 | 100 to 1000 | < 10
14 | C=CC(=O)Nc1cc(Nc2nccc(-n3c(=O)n(C4CC4)c4cc(C#N)ccc43)n2)c(OC)cc1N(C)CCN(C)C [Compound 101, N-(5-((4-(5-cyano-3-cyclopropyl-2-oxo-2,3-dihydro-1H-benzo[d]imidazol-1-yl)pyrimidin-2-yl)amino)-2-((2-(dimethylamino)ethyl)(methyl)amino)-4-methoxyphenyl)acrylamide] | < 1 | 177 to 179 | 100 to 1000 | < 10
15 | C=CC(=O)Nc1cc(Nc2nccc(-n3c(=O)n(C4CC4)c4cc(OC)ccc43)n2)c(OC)cc1N(C)CCN(C)C [Compound 102, N-(5-((4-(3-cyclopropyl-5-methoxy-2-oxo-2,3-dihydro-1H-benzo[d]imidazol-1-yl)pyrimidin-2-yl)amino)-2-((2-(dimethylamino)ethyl)(methyl)amino)-4-methoxyphenyl)acrylamide] | < 1 | 144 to 146 | 100 to 1000 | < 10
16 | C=CC(=O)Nc1cc(Nc2nccc(-n3c(=O)n(CC4CC4)c4cc(F)ccc43)n2)c(OC)cc1N(C)CCN(C)C [Compound 105, N-(5-(4-(3-(cyclopropylmethyl)-5-fluoro-2-oxo-2,3-dihydro-1H-benzo[d]imidazol-1-yl)pyrimidin-2-ylamino)-2-((2-(dimethylamino)ethyl)(methyl)amino)-4-methoxyphenyl)acrylamide] | < 1 |  | 100 to 1000 | < 10
17 | C=CC(=O)Nc1cc(Nc2nccc(-n3c(=O)n(C)c4ccccc43)n2)c(OCCOC)cc1N(C)CCN(C)C [Compound 120, N-{2-[(2-dimethylamino-ethyl)-methyl-amino]-4-(2-methoxy-ethoxy)-5-[4-(3-methyl-2-oxo-2,3-dihydro-benzoimidazol-1-yl)-pyrimidin-2-ylamino]-phenyl}-acrylamide] | 1 to 10 | 71 to 78 |  | 
18 | C=CC(=O)Nc1cc(Nc2nccc(-n3c(=O)n(C)c4ccccc43)n2)ccc1N(C)CCN(C)C [Compound 125, N-(2-((2-(dimethylamino)ethyl)(methyl)amino)-5-((4-(3-methyl-2-oxo-2,3-dihydro-1H-benzo[d]imidazol-1-yl)pyrimidin-2-yl)amino)phenyl)acrylamide] | < 1 | 190 to 193 | 100 to 1000 | < 10
19 | C=CC(=O)Nc1cc(Nc2nccc(-n3c(=O)n(C)c4ccccc43)n2)c(C(C)C)cc1N(C)CCN(C)C [Compound 132, N-(2-((2-(dimethylamino)ethyl)(methyl)amino)-4-isopropyl-5-((4-(3-methyl-2-oxo-2,3-dihydro-1H-benzo[d]imidazol-1-yl)pyrimidin-2-yl)amino)phenyl)acrylamide] | 1 to 10 |  | > 1000 | < 10
